Assay results reported in patent publication US9079876B2, “Imidazole derivatives and preparation method and use thereof” (Beijing Orbiepharm Co., Ltd., priority 2010, dated 2015).
Each block holds one compound with its values, some of them ahead of it.

Experiments:
[1] = tested on: rat paw swelling induced by carrageenan; test: Rat paw swelling induced by carrageenan (inflammation model); assay type: in vivo, Wistar rats; conditions: 14 mg/kg intragastric
Method: In vivo test: observation of the effect of compound 1 on rat paw swelling induced by carrageenan (inflammation model evaluation)
50 rats were randomized into 5 groups, with 10 animals in each group.
The total volume prepared for each dose group was determined based on the actual weight of the animals. A corresponding volume of purified water was taken, and was added with a sample of the test compounds or of the positive control, to allow homogenous dispersion. Sodium carboxymethyl cellulose was subsequently added, to make a homogenous suspension without obvious agglomerates.
Methods: 50 Wistar rats ([…], 167-199 g) were used in the study, with 25 males and 25 females. They were randomized into 5 groups, i.e. model group, positive control group, compound 1: low, middle and high dose groups. […] 1 hour after intragastric administration, 0.1 ml 1% carrageenan was intradermally injected in the right hind plantar paw to induce inflammation. After induction of inflammation, paw plantar volume and paw thickness were measured every another hour, consecutively for six times. Paw swelling rate (%) and inhibition rate (%) were calculated.
Assay methods: volume of the rat right paw was determined using UGO Basile plethysmograph, and the liquid level was kept constant for in the same animal in each measurement; thickness of the right hind paw were measured at the depiction line in the central paw with a digital vernier caliper.
The group mean and standard deviation of paw swelling rate in each group of animals were calculated, and then the following statistical analysis was performed. The test level was 0.05, and both statistical significance and biological significance were considered in the result analysis.
Levene's Test was used for homogeneity of variance test. Single-factor analysis of variance (ANOVA) was used for statistical analysis, if no statistical significance (P>0.05) was found. Dunnett's test (parametric method) analysis was used for multiple comparison analysis, if ANOVA found statistical significance (P≦0.05).
If there was heterogeneity of variance (P≦0.05), then the Kruskal-Wallis test was used. If the test result of Kruskal-Wallis test was statistically significant (P<0.05), then Dunnett's test (non-parametric method) was used for multiple comparison analysis.

[2] = target: T1, cyclooxygenase-1 (COX-1 enzyme) (Homo sapiens, UniProt P23219); test: Human whole blood in vitro activity assay, COX-1 (TXB2 by EIA); assay type: cell-based; conditions: read-out: IC50 (μg/mL) COX-1 (converted)
T1 construct: from tissue; host or cells: human whole blood without heparin (platelets) from healthy volunteers
T1 sequence (P23219 24-599): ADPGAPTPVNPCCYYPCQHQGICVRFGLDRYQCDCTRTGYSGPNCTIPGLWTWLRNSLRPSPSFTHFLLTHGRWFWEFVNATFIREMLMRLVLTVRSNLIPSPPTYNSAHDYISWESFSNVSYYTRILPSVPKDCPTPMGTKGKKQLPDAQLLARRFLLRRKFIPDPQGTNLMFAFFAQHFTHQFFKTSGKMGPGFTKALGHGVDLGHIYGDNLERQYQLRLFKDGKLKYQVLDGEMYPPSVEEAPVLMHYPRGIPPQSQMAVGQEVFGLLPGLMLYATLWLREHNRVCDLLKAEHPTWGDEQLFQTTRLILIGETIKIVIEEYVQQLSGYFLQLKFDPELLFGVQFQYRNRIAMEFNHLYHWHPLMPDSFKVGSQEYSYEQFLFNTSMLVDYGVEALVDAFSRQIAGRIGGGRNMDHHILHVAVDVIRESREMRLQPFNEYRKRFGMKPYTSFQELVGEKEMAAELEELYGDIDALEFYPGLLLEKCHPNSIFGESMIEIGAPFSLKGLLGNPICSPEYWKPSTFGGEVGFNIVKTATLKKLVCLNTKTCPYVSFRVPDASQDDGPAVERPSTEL
Method: (§1) Human whole blood in vitro activity study: inhibition of activity of cyclooxygenase-1 (COX-1 enzyme) and cyclooxygenase-2 (COX-2 enzyme) in human blood. […] The blood samples were divided into two parts: one was used for detecting COX-1 enzyme activity, and the other was used for detecting COX-2 enzyme activity. The compounds were dissolved in DMSO, and were prepared in advance into 2 μL solutions in respective concentrations of 500, 50, 5, 0.5, 0.05, 0.005, 0.0005 μg/mL. 200 μL whole blood without heparin was added in the tubes containing the compounds, and then incubated at 37° C. for 1 hour. The activity of COX-1 enzyme was detected by determining the amount of thromboxane B2 (TXB2) synthesized by platelet using an EIA kit. Samples tested without the compounds were negative controls. For COX-2, 200 μL whole blood with heparin was added in the tubes containing the compounds and in the tubes containing 10 μg/mL LPS. LPS control and blank control with solvent only were used respectively for determining the maximum value and the background value of the PGE2 produced therefrom. The samples were incubated at 37° C. for 24 hours, and then centrifuged to collect serum/plasma, which was stored at −80° C. for detection by an EIA kit. The EIA kit of Cayman Company was used, the amounts of TXB2 and PGE2 were determined in accordance to the manufacturer's instructions, and the activities of COX-1 and COX-2 were tested respectively.

[3] = target: T2, cyclooxygenase-2 (COX-2 enzyme) (Homo sapiens, UniProt P35354); test: Human whole blood in vitro activity assay, COX-2 (LPS-induced PGE2 by EIA); assay type: cell-based; conditions: for IC50: LPS, PGE2, read-out: IC50 (μg/mL) COX-2 (converted)
T2 construct: from tissue; host or cells: heparinised human whole blood from healthy volunteers, stimulated with LPS
T2 sequence (P35354 18-604): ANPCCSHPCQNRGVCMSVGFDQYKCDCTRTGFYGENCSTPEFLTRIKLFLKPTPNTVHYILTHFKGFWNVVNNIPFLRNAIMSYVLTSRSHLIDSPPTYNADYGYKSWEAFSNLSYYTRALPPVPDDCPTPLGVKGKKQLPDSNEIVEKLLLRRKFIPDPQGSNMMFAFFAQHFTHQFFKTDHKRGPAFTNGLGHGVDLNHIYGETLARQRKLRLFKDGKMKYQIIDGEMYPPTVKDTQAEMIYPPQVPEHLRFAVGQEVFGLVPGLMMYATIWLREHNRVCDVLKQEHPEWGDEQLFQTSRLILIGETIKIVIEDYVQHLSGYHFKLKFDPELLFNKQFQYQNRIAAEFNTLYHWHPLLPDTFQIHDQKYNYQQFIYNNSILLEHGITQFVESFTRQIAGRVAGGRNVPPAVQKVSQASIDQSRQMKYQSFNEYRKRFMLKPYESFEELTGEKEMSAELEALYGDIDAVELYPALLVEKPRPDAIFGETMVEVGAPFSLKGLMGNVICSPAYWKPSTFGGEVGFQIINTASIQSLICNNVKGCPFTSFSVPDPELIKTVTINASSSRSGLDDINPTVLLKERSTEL
Method: as §1

[4] = tested on: mice tail suspension immobility time; test: Tail suspension test in mice (anti-depression model); assay type: in vivo, Male Kunming mice; conditions: 20 mg/kg intragastric, in s (unit assumed)
Method: In Vivo Test: Tail Suspension Test in Mice (Evaluation on an Anti-Depression Model)
Male Kunming mice, approximately 20 g, were randomized into six groups, i.e. normal group, positive drug group (fluoxetine 20 mg/kg), compound 1: group A 5 mg/kg, group B 10 mg/kg, group C 20 mg/kg, and group D 40 mg/kg.
Single Dose Test: Mice were normally fed for 1 day and allowed to adapt to the environment. Then the mice were fasted (except water) for 16 hours, and were intragastrically administrated with a single dose of the compound. The normal group was intragastrically administrated with an equivalent amount of distilled water. 40 min after the administration, the mice were inverted and fixed to a tail suspension device, and the distance between the head and the desktop was about 30 cm. Immobility time was recorded with an analysis record system, for the latter 4 min within the 6 min recording period, and was used for statistical analysis.
(§2) Study with Three-Day Consecutive Dosing: Mice were normally fed for 1 day and allowed to adapt to the environment. Then the mice were intragastrically administrated with the test drug for 3 consecutive days (once per day), and the normal group was intragastrically administrated with an equivalent amount of distilled water. The mice were fasted (except water) for 16 hours before the last dosing. 40 min after the last dosing, the mice were inverted and fixed to the tail suspension device, and the distance between the head and the desktop was about 30 cm. Immobility time was recorded with an analysis record system, for the latter 4 min within the 6 min recording period, and was used for statistical analysis.
as §2, with “with Seven-Day” for “with Three-Day”, “intragastrically dosed” for “intragastrically administrated with the test drug”, “for 7” for “for 3”, “days (once/day),” for “days (once per day),”, “last administration.” for “last dosing.”, “last administration,” for “last dosing,”

[5] = tested on: mice forced swimming immobility time; test: Forced swimming test in mice (anti-depression model); assay type: in vivo, Male Kunming mice; conditions: 20 mg/kg intragastric, in s (unit assumed)
Method: In Vivo Study: The Forced Swimming Test in Mice (Evaluation on Anti-Depression Model)
Male Kunming mice, approximately 20 g, were randomized into six groups, i.e. normal group, positive drug group (fluoxetine 20 mg/kg), group A (5 mg/kg Compound 1), group B (10 mg/kg Compound 1), group C (20 mg/kg Compound 1), and group D (40 mg/kg Compound 1).
Single Dose Test: Mice were normally fed for 1 day and allowed to adapt to the environment. Then the mice were fasted (except water) for 16 hours, and were intragastrically administrated with a single dose of the test drug, and the normal group was intragastrically administrated with an equivalent amount of distilled water. 40 min after administration, the mice were placed in forced swimming test device (swimming environment: pool diameter 12.5 cm cylinder, water temperature 25° C. and water depth 10 cm). Mice swam for six minutes, and the immobility time (i.e., the time during which the limbs were immobile, or only the feet were thrashing or paddling) was recorded with an animal behavioral record system, for the latter 4 min within the 6 min recording period, and was used for statistical analysis.
(§3) Study with Three-Day Consecutive Dosing: Mice were normally fed for 1 day and allowed to adapt to the environment. Then the mice were intragastrically administrated with the test drug consecutively for three days (once per day). The normal group was intragastrically administrated equivalent amount of distilled water. Mice were fasted (except water) for 16 hours before the last dosing. 40 min after the last dosing, the mice were placed in forced swimming test device (swimming environment: pool diameter 12.5 cm cylinder, water temperature 25° C. and water depth 10 cm). Mice swam for six minutes, and the immobility time (i.e., the time during which the limbs were immobile, or only the feet were thrashing or paddling) was recorded with an animal behavioral record system, for the latter 4 min within the 6 min recording period, and was used for statistical analysis.
as §3, with “Seven-Day” for “Three-Day”, “seven” for “three”

[6] = 3 days consecutive administration
[7] = 7 days consecutive administration
[8] = single dose, 40 min after administration

SMILES: Cc1ccc(-c2cc(C(F)(F)F)nn2-c2ccc(S(N)(=O)=O)cc2)cc1 [Celecoxib, reference compound]
inhibition rate of plantar paw thickness swelling ([1]; 1 h after inflammation): 30.02%
inhibition rate of plantar paw volume swelling ([1]; 1 h after inflammation): 0.26%
plantar paw thickness swelling rate ([1]; 1 h after inflammation): 7.69 ± 3.31%
plantar paw volume swelling rate ([1]; 1 h after inflammation): 10.87 ± 6.32%
inhibition rate of plantar paw thickness swelling ([1]; 2 h after inflammation): 60.28%
inhibition rate of plantar paw volume swelling ([1]; 2 h after inflammation): 38.81%
plantar paw thickness swelling rate ([1]; 2 h after inflammation): 6.30 ± 2.55 %
plantar paw volume swelling rate ([1]; 2 h after inflammation): 10.71 ± 6.01 %
inhibition rate of plantar paw thickness swelling ([1]; 3 h after inflammation): 73.09%
inhibition rate of plantar paw volume swelling ([1]; 3 h after inflammation): 66.24%
plantar paw thickness swelling rate ([1]; 3 h after inflammation): 4.64 ± 1.99 %
plantar paw volume swelling rate ([1]; 3 h after inflammation): 7.16 ± 5.15 %
inhibition rate of plantar paw thickness swelling ([1]; 4 h after inflammation): 80.52%
inhibition rate of plantar paw volume swelling ([1]; 4 h after inflammation): 64.29%
plantar paw thickness swelling rate ([1]; 4 h after inflammation): 3.71 ± 2.58 %
plantar paw volume swelling rate ([1]; 4 h after inflammation): 9.68 ± 6.13 %
inhibition rate of plantar paw thickness swelling ([1]; 5 h after inflammation): 82.31%
inhibition rate of plantar paw volume swelling ([1]; 5 h after inflammation): 56.44%
plantar paw thickness swelling rate ([1]; 5 h after inflammation): 3.34 ± 2.56 %
plantar paw volume swelling rate ([1]; 5 h after inflammation): 12.22 ± 6.90 %
inhibition rate of plantar paw thickness swelling ([1]; 6 h after inflammation): 82.40%
inhibition rate of plantar paw volume swelling ([1]; 6 h after inflammation): 57.00%
plantar paw thickness swelling rate ([1]; 6 h after inflammation): 2.72 ± 2.51 %
plantar paw volume swelling rate ([1]; 6 h after inflammation): 11.91 ± 5.41 %

SMILES: CS(=O)(=O)c1ccc(-n2cncc2-c2ccccc2)nc1 [Compound 1E, 5-(methylsulfonyl)-2-(5-phenyl-1H-imidazol-1-yl)pyridine]
IC50 [2]: 86.5 µM
IC50COX-1/IC50COX-2 [3]: 11.6
IC50 [3]: 7.45 µM

SMILES: CS(=O)(=O)c1ccc(-n2cnc(Cl)c2-c2ccc(Cl)cc2Cl)nc1 [Compound 4, 2-(4-chloro-5-(2,4-dichlorophenyl)-1H-imidazol-1-yl)-5-(methylsulfonyl)pyridine]
IC50 [2]: 45.6 µM
IC50COX-1/IC50COX-2 [3]: 26.2
IC50 [3]: 1.74 µM

SMILES: COc1ccc(-c2c(Cl)ncn2-c2ccc(S(C)(=O)=O)cn2)cc1 [Compound 5, 2-(4-chloro-5-(4-methoxyphenyl)-1H-imidazol-1-yl)-5-(methylsulfonyl)pyridine]
IC50 [2]: 0.632 µM
IC50COX-1/IC50COX-2 [3]: 4.6
IC50 [3]: 0.137 µM

SMILES: COc1ccc(-c2c(Cl)ncn2-c2ccc(S(C)(=O)=O)cn2)cc1F [Compound 6, 2-(4-chloro-5-(3-fluoro-4-methoxyphenyl)-1H-imidazol-1-yl)-5-(methylsulfonyl)pyridine]
IC50 [2]: 8.8 µM
IC50COX-1/IC50COX-2 [3]: 25.8
IC50 [3]: 0.34 µM

SMILES: CNCCC(Oc1ccc(C(F)(F)F)cc1)c1ccccc1 (centres unmarked) [fluoxetine, reference compound]
tail suspension Immobility time [4, 6]: 33.95 ± 10.50
tail suspension Immobility time [4, 7]: 33.76 ± 10.47
tail suspension Immobility time [4, 8]: 43.52 ± 20.21
forced swimming Immobility time [5, 6]: 82.42 ± 32.07
forced swimming Immobility time [5, 7]: 90.94 ± 31.73
forced swimming Immobility time [5, 8]: 105.04 ± 37.98

More lines, now with the values ahead:

IC50 [2]: 54 µM
IC50COX-1/IC50COX-2 [3]: 19.0
IC50 [3]: 2.84 µM
SMILES: CS(=O)(=O)c1ccc(-n2cnc(Cl)c2-c2cccnc2)nc1 [Compound 7, 2-(4-chloro-5-(pyridin-3-yl)-1H-imidazol-1-yl)-5-(methylsulfonyl)pyridine]

IC50 [2]: > 1500 µM
IC50COX-1/IC50COX-2 [3]: >416
IC50 [3]: 3.59 µM
SMILES: CS(=O)(=O)c1ccc(-n2cnc(Cl)c2-c2ccccc2)cn1 [Compound 8, 5-(4-chloro-5-phenyl-1H-imidazol-1-yl)-2-(methylsulfonyl)pyridine]

IC50 [2]: 187 µM
IC50 [3]: > 1670 µM
SMILES: CS(=O)(=O)c1ccc(-n2cncc2-c2ccccc2)cn1 [Compound 8E, 2-(methylsulfonyl)-5-(5-phenyl-1H-imidazol-1-yl)pyridine]
